Series [1] in a line: (§1) Cytotoxicity against HEL cells assessed as alteration of cell morphology by microscopic analysis. It counts as toxicity, cell-based. As to conditions: human, HEL cells.
Series [2] concerns Human alphaherpesvirus 1. It counts as functional, organism-based. The following applies: Human alphaherpesvirus 1, KOS, HEL.
For series [3], the system named is Human alphaherpesvirus 3. The format is functional, organism-based. The following applies: Human alphaherpesvirus 3, OKA, HEL.
The subject of series [4] is Human alphaherpesvirus 3. It counts as functional, organism-based. As to conditions: Human alphaherpesvirus 3, O7-1, HEL.
The subject of series [5] is Human betaherpesvirus 5. The format is functional, organism-based. The following applies: Human betaherpesvirus 5, Davis, HEL.
The next series relates to Vaccinia virus. In words: microbe, parasite or virus in culture. As to conditions: Orthopoxvirus vaccinia, HEL.
Series [6] relates to Human alphaherpesvirus 1. It counts as functional, organism-based. As to conditions: Human alphaherpesvirus 1, KOS, HEL. The source holds these as a separate data set.
A further series relates to Human alphaherpesvirus 2. The format is functional, organism-based. The following applies: Human alphaherpesvirus 2, G, HEL.
Series [7] concerns Human betaherpesvirus 5. It counts as functional, organism-based. As to conditions: Human betaherpesvirus 5, AD-169, HEL.
The test system of a further series is Human adenovirus 2. It counts as functional, organism-based. As to conditions: Human mastadenovirus C, HEL.
The subject of a further series is HEL. The description is as §1. It counts as toxicity, cell-based. As to conditions: human, hel.

In general, EC50 refers to the concentration giving half of the maximal effect. A higher EC50 goes with weaker potency.

A value given as a limit tells only on which side of the number the result lay.

For the compound `Nc1ccn(C[C@@H](CO)OCP(=O)(O)O)c(=O)n1` [CIDOFOVIR], the MCC in series [1] was more than 250 µM. This compound yielded an EC50 in the series on Human alphaherpesvirus 1 [2] of 1 µM.
`O=c1[nH]c(=O)n([C@H]2C[C@H](O)[C@@H](CO)O2)cc1/C=C/Br` [BRIVUDINE]: the MCC in [1] is more than 250 µM. In addition, the figures for the EC50 in the series with Human alphaherpesvirus 3 [3] and in the series with Human alphaherpesvirus 3 [4] were 0.042 µM and 2.4 µM, respectively.
Consider `Nc1nc2c(ncn2COC(CO)CO)c(=O)[nH]1` [GANCICLOVIR], for which, in series [1], the MCC is more than 100 µM. The results for the half-maximal effective concentration (EC50) with Human betaherpesvirus 5 [5] and in the series on Vaccinia virus were 0.63 µM and more than 100 µM, respectively.
Consider `O=c1[nH]c(=O)n([C@@H]2CN[C@H](CO)[C@@H](O)C2)cc1I`, for which the MCC in series [1] is more than 100 µM. For the same compound, the EC50 in the series on Human alphaherpesvirus 1 [6] came to 45 µM; in the series on Human alphaherpesvirus 2, 45 µM; in the series with Human alphaherpesvirus 1 [2] it was 34 µM; in the series on Human betaherpesvirus 5 [7] it was 76 µM; in the series with Human betaherpesvirus 5 [5] it was 67 µM; with Human alphaherpesvirus 3 [3] it was 50 µM. Further, the figures for the EC50 in the series with Human alphaherpesvirus 3 [4], in the series with Human adenovirus 2 and in the series on Vaccinia virus were 61 µM, 50 µM and 50 µM, respectively.
For the compound `Nc1nc(=O)n([C@@H]2CN[C@H](CO)[C@@H](O)C2)cc1F`, the Activity result with HEL is listed as “Non-Toxic”.
On to `Nc1nc2c(ncn2COCCO)c(=O)[nH]1` [ACYCLOVIR], for which the MCC in [1] is more than 250 µM. The EC50 is 126 µM in the series on Human alphaherpesvirus 1 [2], 0.7 µM with Human alphaherpesvirus 3 [3], 14.7 µM with Human alphaherpesvirus 3 [4] and more than 250 µM with Vaccinia virus.

These data come from ChEMBL document CHEMBL5108006, “Synthesis and antiviral properties of biomimetic iminosugar-based nucleosides” (Eur J Med Chem, 2022).
